In patent US9693942B2 (NESTEC S.A., priority 2012, dated 2017):

Assays:
tyrosinase = assay: Production of tyrosinase by B16 murine melanocyte cell line (immunolabeling); assay type: cell-based; conditions: kojic acid 400 μg/mL, 48 hours, B16 cells
Method: B16 cells were cultured in DMEM 1 g/L glucose without phenol red supplemented with 10% foetal calf serum, in a humidified chamber at 37° C. and containing 5% CO2. […] The production of tyrosinase was evaluated by immunolabeling. The control condition corresponds to a culture of B16 murine melanocytes treated just with the medium, no other compound being added.

B16 murine melanocytes = assay: Production of melanin by B16 murine melanocyte cell line; assay type: cell-based; conditions: kojic acid 400 μg/mL, 72 hours, B16 cells, total melanin (extracellular and intracellular), OD 405 nm
Method: B16 cells were cultured in DMEM 1 g/L glucose without phenol red supplemented with 10% foetal calf serum, in a humidified chamber at 37° C. and containing 5% CO2. […] This was performed in the presence or absence of NDP-MSH, an analog of MSH (melanocyte-stimulating hormone). The total quantity of melanin (extracellular and intracellular) was evaluated by measuring the optical density at 405 nm of each sample against melanin standards in the presence or absence of NDP-MSH. The control condition corresponds to a culture of B16 murine melanocytes treated just with the medium, no other compound being added.

For O=c1cc(CO)occ1O [kojic acid], the “production of tyrosinase relative to the control” value (tyrosinase) was “decreased” and the “melanin production, percentage relative to the control” value (B16 murine melanocytes) was 48%.
